Test results as given in patent publication US20260042764A1, “COMPOSITIONS AND METHODS FOR INHIBITION OF KRAS” (TheRas, Inc., priority 2022, published 2026).

Target: T1, Avi-KRAS G12D (1-169) GppNHp/RAF1 RBD-3xFLAG (52-151) (Homo sapiens, UniProt P01116, G12D)
T1 construct: Avi-KRAS G12D (1-169)
Experiment: Raf1-KRAS G12D-GppNHP disruption HTRF assay (Biological Example 1)
Assay type: binding
Details: KRAS G12D-GppNHp/RAF1 RBD HTRF
How it was run: (§1)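 Measured with a KRAS/RAF1 HTRF assay at pH 7.5 in 10% DMSO, with two 1 h room-temperature incubations with shaking.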

T1 sequence (P01116 1-169 isoform P01116-2 G12D): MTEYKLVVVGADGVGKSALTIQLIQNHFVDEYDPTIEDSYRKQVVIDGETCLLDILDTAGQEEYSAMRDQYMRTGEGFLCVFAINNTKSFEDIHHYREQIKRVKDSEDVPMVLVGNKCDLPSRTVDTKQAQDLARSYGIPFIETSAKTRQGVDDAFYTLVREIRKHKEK

SMILES	IC50
CCC(=O)N1C[C@@H](N(CC)c2nc(OC[C@@]34CCCN3C[C@H](F)C4)nc3c(F)c(-c4ccc(F)c5sc(N)c(C#N)c45)c(C(F)(F)F)cc23)C[C@@H]1C [Compound 464]	< 100 nM
CN(C)C(=O)[C@H]1CN(c2nc(OC[C@@]34CCCN3C[C@H](F)C4)nc3c(F)c(-c4ccc(F)c5sc(N)c(C#N)c45)c(C(F)(F)F)cc23)CCO1 [Compound 465]	< 100 nM
CN(C)C(=O)c1nnn2c1CN(c1nc(OC[C@@]34CCCN3C[C@H](F)C4)nc3c(F)c(-c4ccc(F)c5sc(N)c(C#N)c45)c(C(F)(F)F)cc13)CC2 [Compound 466]	100 to 1000 nM
CCN(c1nc(OC[C@@]23CCCN2C[C@H](F)C3)nc2c(F)c(-c3ccc(F)c4sc(N)c(C#N)c34)c(C(F)(F)F)cc12)[C@H]1C[C@H](C)N(C(=O)C(C)C)C1 [Compound 471]	100 to 1000 nM
CN(C)C(=O)[C@@H]1CN(c2nc(OC[C@@]34CCCN3C[C@H](F)C4)nc3c(F)c(-c4ccc(F)c5sc(N)c(C#N)c45)c(C(F)(F)F)cc23)CCO1 [Compound 472]	100 to 1000 nM
C[C@H]1[C@H](O)CCCN1c1nc(OC[C@@]23CCCN2C[C@H](F)C3)nc2c(F)c(-c3ccc(F)c4sc(N)c(C#N)c34)c(C(F)(F)F)cc12 [Compound 473]	100 to 1000 nM

Target: T2, Avi-KRAS G12R (1-169) GppNHp/RAF1 RBD-3xFLAG (52-151) (Homo sapiens, UniProt P01116, G12R)
T2 construct: Avi-KRAS G12R (1-169)
Experiment: Raf1-KRAS G12R-GppNHP disruption HTRF assay (Biological Example 1)
Assay type: binding
Details: KRAS G12R-GppNHp/RAF1 RBD HTRF
How it was run: as §1

T2 sequence (P01116 1-169 isoform P01116-2 G12R): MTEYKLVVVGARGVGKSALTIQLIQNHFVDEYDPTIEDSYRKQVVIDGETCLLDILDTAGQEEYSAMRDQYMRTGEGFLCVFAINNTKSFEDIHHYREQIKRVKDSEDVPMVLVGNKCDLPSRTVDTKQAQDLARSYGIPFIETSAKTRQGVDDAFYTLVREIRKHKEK

SMILES	IC50
CCC(=O)N1C[C@@H](N(CC)c2nc(OC[C@@]34CCCN3C[C@H](F)C4)nc3c(F)c(-c4ccc(F)c5sc(N)c(C#N)c45)c(C(F)(F)F)cc23)C[C@@H]1C [Compound 464]	< 100 nM
CN(C)C(=O)[C@H]1CN(c2nc(OC[C@@]34CCCN3C[C@H](F)C4)nc3c(F)c(-c4ccc(F)c5sc(N)c(C#N)c45)c(C(F)(F)F)cc23)CCO1 [Compound 465]	100 to 1000 nM
CN(C)C(=O)c1nnn2c1CN(c1nc(OC[C@@]34CCCN3C[C@H](F)C4)nc3c(F)c(-c4ccc(F)c5sc(N)c(C#N)c45)c(C(F)(F)F)cc13)CC2 [Compound 466]	100 to 1000 nM
CCN(c1nc(OC[C@@]23CCCN2C[C@H](F)C3)nc2c(F)c(-c3ccc(F)c4sc(N)c(C#N)c34)c(C(F)(F)F)cc12)[C@H]1C[C@H](C)N(C(=O)C(C)C)C1 [Compound 471]	100 to 1000 nM
CN(C)C(=O)[C@@H]1CN(c2nc(OC[C@@]34CCCN3C[C@H](F)C4)nc3c(F)c(-c4ccc(F)c5sc(N)c(C#N)c45)c(C(F)(F)F)cc23)CCO1 [Compound 472]	1000 to 10000 nM
C[C@H]1[C@H](O)CCCN1c1nc(OC[C@@]23CCCN2C[C@H](F)C3)nc2c(F)c(-c3ccc(F)c4sc(N)c(C#N)c34)c(C(F)(F)F)cc12 [Compound 473]	100 to 1000 nM

Target: T3, Avi-KRAS G12V (1-169) GppNHp/RAF1 RBD-3xFLAG (52-151) (Homo sapiens, UniProt P01116, G12V)
T3 construct: Avi-KRAS G12V (1-169)
Experiment: Raf1-KRAS G12V-GppNHP disruption HTRF assay (Biological Example 1)
Assay type: binding
Details: KRAS G12V-GppNHp/RAF1 RBD HTRF
How it was run: as §1

T3 sequence (P01116 1-169 isoform P01116-2 G12V): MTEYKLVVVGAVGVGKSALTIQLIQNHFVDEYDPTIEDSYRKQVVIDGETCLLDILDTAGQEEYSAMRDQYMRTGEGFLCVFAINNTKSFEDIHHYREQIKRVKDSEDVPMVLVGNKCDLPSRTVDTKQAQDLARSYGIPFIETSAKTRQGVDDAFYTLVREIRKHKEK

SMILES	IC50
CCC(=O)N1C[C@@H](N(CC)c2nc(OC[C@@]34CCCN3C[C@H](F)C4)nc3c(F)c(-c4ccc(F)c5sc(N)c(C#N)c45)c(C(F)(F)F)cc23)C[C@@H]1C [Compound 464]	< 100 nM
CN(C)C(=O)[C@H]1CN(c2nc(OC[C@@]34CCCN3C[C@H](F)C4)nc3c(F)c(-c4ccc(F)c5sc(N)c(C#N)c45)c(C(F)(F)F)cc23)CCO1 [Compound 465]	100 to 1000 nM
CN(C)C(=O)c1nnn2c1CN(c1nc(OC[C@@]34CCCN3C[C@H](F)C4)nc3c(F)c(-c4ccc(F)c5sc(N)c(C#N)c45)c(C(F)(F)F)cc13)CC2 [Compound 466]	100 to 1000 nM
CCN(c1nc(OC[C@@]23CCCN2C[C@H](F)C3)nc2c(F)c(-c3ccc(F)c4sc(N)c(C#N)c34)c(C(F)(F)F)cc12)[C@H]1C[C@H](C)N(C(=O)C(C)C)C1 [Compound 471]	100 to 1000 nM
CN(C)C(=O)[C@@H]1CN(c2nc(OC[C@@]34CCCN3C[C@H](F)C4)nc3c(F)c(-c4ccc(F)c5sc(N)c(C#N)c45)c(C(F)(F)F)cc23)CCO1 [Compound 472]	1000 to 10000 nM
C[C@H]1[C@H](O)CCCN1c1nc(OC[C@@]23CCCN2C[C@H](F)C3)nc2c(F)c(-c3ccc(F)c4sc(N)c(C#N)c34)c(C(F)(F)F)cc12 [Compound 473]	100 to 1000 nM

Target: T4, Avi-KRAS WT (1-169) GppNHp/RAF1 RBD-3xFLAG (52-151) (Homo sapiens, UniProt P01116)
T4 construct: Avi-KRAS WT (1-169)
Experiment: Raf1-KRAS WT-GppNHP disruption HTRF assay (Biological Example 1)
Assay type: binding
Details: KRAS WT-GppNHp/RAF1 RBD HTRF
How it was run: as §1

T4 sequence (P01116 1-169 isoform P01116-2): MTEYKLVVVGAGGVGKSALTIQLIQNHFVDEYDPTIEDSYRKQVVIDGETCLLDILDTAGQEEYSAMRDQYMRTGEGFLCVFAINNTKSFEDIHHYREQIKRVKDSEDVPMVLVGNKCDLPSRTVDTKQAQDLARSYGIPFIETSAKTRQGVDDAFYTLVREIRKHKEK

SMILES	IC50
CCC(=O)N1C[C@@H](N(CC)c2nc(OC[C@@]34CCCN3C[C@H](F)C4)nc3c(F)c(-c4ccc(F)c5sc(N)c(C#N)c45)c(C(F)(F)F)cc23)C[C@@H]1C [Compound 464]	100 to 1000 nM
CN(C)C(=O)[C@H]1CN(c2nc(OC[C@@]34CCCN3C[C@H](F)C4)nc3c(F)c(-c4ccc(F)c5sc(N)c(C#N)c45)c(C(F)(F)F)cc23)CCO1 [Compound 465]	100 to 1000 nM
CN(C)C(=O)c1nnn2c1CN(c1nc(OC[C@@]34CCCN3C[C@H](F)C4)nc3c(F)c(-c4ccc(F)c5sc(N)c(C#N)c45)c(C(F)(F)F)cc13)CC2 [Compound 466]	100 to 1000 nM
CCN(c1nc(OC[C@@]23CCCN2C[C@H](F)C3)nc2c(F)c(-c3ccc(F)c4sc(N)c(C#N)c34)c(C(F)(F)F)cc12)[C@H]1C[C@H](C)N(C(=O)C(C)C)C1 [Compound 471]	100 to 1000 nM
CN(C)C(=O)[C@@H]1CN(c2nc(OC[C@@]34CCCN3C[C@H](F)C4)nc3c(F)c(-c4ccc(F)c5sc(N)c(C#N)c45)c(C(F)(F)F)cc23)CCO1 [Compound 472]	1000 to 10000 nM
C[C@H]1[C@H](O)CCCN1c1nc(OC[C@@]23CCCN2C[C@H](F)C3)nc2c(F)c(-c3ccc(F)c4sc(N)c(C#N)c34)c(C(F)(F)F)cc12 [Compound 473]	100 to 1000 nM

Test system: GP2d cells (KRAS G12D)
Experiment: Cell-based pERK HTRF assay in GP2d cell (Biological Example 2)
Details: GP2d, GP2d (KRAS G12D) cells, pERK HTRF
How it was run: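 Phospho-ERK is measured by HTRF following a 60 min compound exposure at 0.25% DMSO, with a 9-point half-log curve topping at 1 μM or 100 nM.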

SMILES	IC50
CCC(=O)N1C[C@@H](N(CC)c2nc(OC[C@@]34CCCN3C[C@H](F)C4)nc3c(F)c(-c4ccc(F)c5sc(N)c(C#N)c45)c(C(F)(F)F)cc23)C[C@@H]1C [Compound 464]	< 100 nM
CN(C)C(=O)[C@H]1CN(c2nc(OC[C@@]34CCCN3C[C@H](F)C4)nc3c(F)c(-c4ccc(F)c5sc(N)c(C#N)c45)c(C(F)(F)F)cc23)CCO1 [Compound 465]	< 100 nM
CN(C)C(=O)c1nnn2c1CN(c1nc(OC[C@@]34CCCN3C[C@H](F)C4)nc3c(F)c(-c4ccc(F)c5sc(N)c(C#N)c45)c(C(F)(F)F)cc13)CC2 [Compound 466]	< 100 nM
CCN(c1nc(OC[C@@]23CCCN2C[C@H](F)C3)nc2c(F)c(-c3ccc(F)c4sc(N)c(C#N)c34)c(C(F)(F)F)cc12)[C@H]1C[C@H](C)N(C(=O)C(C)C)C1 [Compound 471]	< 100 nM
CN(C)C(=O)[C@@H]1CN(c2nc(OC[C@@]34CCCN3C[C@H](F)C4)nc3c(F)c(-c4ccc(F)c5sc(N)c(C#N)c45)c(C(F)(F)F)cc23)CCO1 [Compound 472]	< 100 nM
C[C@H]1[C@H](O)CCCN1c1nc(OC[C@@]23CCCN2C[C@H](F)C3)nc2c(F)c(-c3ccc(F)c4sc(N)c(C#N)c34)c(C(F)(F)F)cc12 [Compound 473]	< 100 nM

Test system: SW620 cells (KRAS G12V)
Experiment: Cell-based pERK HTRF assay in SW620 cell (Biological Example 4)
Details: Homo sapiens, SW-620, SW620 (KRAS G12V) cells, pERK HTRF
How it was run: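 This assay measures inhibition of ERK phosphorylation downstream of KRAS G12V in intact SW620 cells. Compounds are applied for 4 h over nine half-log concentrations starting at 1 μM, and pERK is quantified by HTRF.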

SMILES	IC50
CCC(=O)N1C[C@@H](N(CC)c2nc(OC[C@@]34CCCN3C[C@H](F)C4)nc3c(F)c(-c4ccc(F)c5sc(N)c(C#N)c45)c(C(F)(F)F)cc23)C[C@@H]1C [Compound 464]	< 100 nM
CN(C)C(=O)[C@H]1CN(c2nc(OC[C@@]34CCCN3C[C@H](F)C4)nc3c(F)c(-c4ccc(F)c5sc(N)c(C#N)c45)c(C(F)(F)F)cc23)CCO1 [Compound 465]	< 100 nM
CN(C)C(=O)c1nnn2c1CN(c1nc(OC[C@@]34CCCN3C[C@H](F)C4)nc3c(F)c(-c4ccc(F)c5sc(N)c(C#N)c45)c(C(F)(F)F)cc13)CC2 [Compound 466]	< 100 nM
CCN(c1nc(OC[C@@]23CCCN2C[C@H](F)C3)nc2c(F)c(-c3ccc(F)c4sc(N)c(C#N)c34)c(C(F)(F)F)cc12)[C@H]1C[C@H](C)N(C(=O)C(C)C)C1 [Compound 471]	< 100 nM
CN(C)C(=O)[C@@H]1CN(c2nc(OC[C@@]34CCCN3C[C@H](F)C4)nc3c(F)c(-c4ccc(F)c5sc(N)c(C#N)c45)c(C(F)(F)F)cc23)CCO1 [Compound 472]	< 100 nM
C[C@H]1[C@H](O)CCCN1c1nc(OC[C@@]23CCCN2C[C@H](F)C3)nc2c(F)c(-c3ccc(F)c4sc(N)c(C#N)c34)c(C(F)(F)F)cc12 [Compound 473]	< 100 nM
